# Assay results published in patent publication US10308649B2, “Compounds and methods to suppress autoimmune response” (Oregon State University, priority 2014, dated 2019).
# Experiments:
# NOD mice = test: Flow cytometry of leukocyte composition of pancreas, PLN and spleen of NOD mice; format: in vivo, mouse
# Experimental: The leukocyte composition of the pancreas and draining lymph nodes was analyzed at 12, 15, and 20 weeks of age using flow cytometry. Mice were sacrificed at 12, 15, and 20 weeks of age, draining lymph nodes and pancreata were excised, and single cell suspensions were prepared for analysis with flow cytometry. Fc receptors were blocked with rat immunoglobulin G (IgG) acquired from Jackson ImmunoResearch. The cells were stained with the following antibodies: CD4 (RM4, eBioscience), CD8 (53-6.7, eBioscience), CD19 (1D3, eBioscience), CD45 (30-F11, BD Biosciences), Foxp3 (FJK-16s, eBioscience), Nrp1 (3DS304M, eBioscience), CD25 (PC61.5, eBioscience), RORγt (AFKJS-9, eBioscience). For intracellular staining, cells were fixed and permeabilized using a Foxp3 Fixation/Permeabilization buffer acquired from eBioscience (San Diego, Calif.). Data were acquired using a FC-500 flow cytometer (BECKMAN COULTER) and compensated and analyzed using FLOWJO software. Fluorescence minus one (FMO) controls were used for setting gates for analysis.
# FIGS. 3a-3f illustrate results comparing the leukocyte composition of the vehicle treated NOD mice to the ARHL1 treated NOD mice from FIG. 2b. The leukocyte composition of the vehicle treated NOD mice to the ARHL1 treated NOD mice was analyzed at 12 weeks of age. Student's t-test was used for analysis. Sample size of n=5-9 mice per group was used. A single asterisk (*) signifies p≤0.05; a double asterisk (**) signifies p≤0.01; a triple asterisk (***) signifies p≤0.001.
# FIGS. 4a-4t illustrate results comparing leukocyte composition of draining lymph nodes in vehicle treated, AHRL1 treated, and TCDD treated NOD mice at 12, 15, and 20 weeks of age. Seven-week-old NOD mice were treated with vehicle, AHRL1, or TCDD as described with reference to FIG. 2b. At 12 weeks of age, 15 weeks of age, and 20 weeks of age, the draining lymph nodes were excised from the mice and stained with CD4 antibodies and Foxp3 antibodies. The results were analyzed by flow cytometry and plotted as average +/−standard deviation (s.d.). A sample size of n=5-9 mice per group was used. A single asterisk (*) signifies p≤0.05.
# donor CD4+ T cells = test: Acute graft versus host model: Treg phenotype of alloactivated donor CD4+ T cells; format: in vivo, mouse; conditions: B6D2F1 hosts, day 2
# Experimental: FIGS. 14a-14i show AHRL1 induces an AhR-dependent Treg phenotype by a mechanism that is mediated by the AhR in donor CD4+ T cells. The AhR-induced Tregs were identified as the CD4+CD25+CTLA-4+CD62L^low population of T cells. To determine if AHRL1 induced changes in donor CD4+ T cells, AHRL1 was compared with TCDD and the vehicle. On day 0, B6D2F1 host mice in groups of 5 were injected with CFSE-labeled C57BL/6 (H-2^b/b) T cells and given 15 mg/kg of AHRL1, 15 μg/kg of TCDD, or vehicle by i.p. injection. At 24 hours, an additional dose of 7 mg/kg of AHRL1 or vehicle was given. Mice that were treated with TCDD at the time of donor cell transfer were used as positive controls. Splenocytes were isolated on day 2 for phenotypic analysis of the alloresponsive (CFSE-diluted) donor CD4+ T cells. Splenocytes were harvested from the host mice and the CD4+ T cells were identified by flow cytometry.
# On day 0, B6D2F1 host mice in groups of 5 were injected with donor T cells obtained from AhR^+/+ or AhR-deficient (AhR^−/−) C57BL/6 mice. Host mice were treated with 2 mg/kg of AHRL1 or vehicle immediately following donor cell transfer and again at 24 hours. […] Thus, the AhR in the CD4+ T cell is the primary target driving the AhR-Treg phenotype.
# On day 0, B6D2F1 host mice in groups of 3-5 were injected with C57BL/6 T cells. Mice were immediately treated with 0 mg/kg, 0.4 mg/kg, 2 mg/kg, or 10 mg/kg of AHRL1 and again on day 1. On day 2, expression of markers associated with the AhR-Treg phenotype increased as the dose of AHRL1 increased. Further, dosing generally correlated with degree of activation of AhR as reflected by CYP1A1, CYP1B1, and AHRR expression in lymph nodes from the same mice. The asterisk (*) indicates a p-value of 0.05 relative to vehicle treatment.
# FIGS. 16c and 16d show expression of phenotypic markers, CD25+ICOS+CD62L^low and CD25+CTLA-4+, associated with AhR-Tregs in mice treated with AHRL1. Host mice were treated with 10 mg/kg of AHRL1, 11-Cl-BBQ analog, or vehicle on day 0 and day 1 following donor cell transfer. On day 2, the alloactivated CD4+ donor T cells were identified based on CFSE dilution. The percentage of donor cells in each group expressing the Treg markers were derived from flow histograms. The data represents mean±SEM of 5 mice per treatment. […] Analog 1 is statistically different from AHRL1 and analog 4 (p-value=0.05). […], analog 1, and analog 4 are shown to be AhR ligands that are capable of inducing Tregs in vivo. Accordingly, analogs 1 and 4 are expected to have a similar therapeutic effect in a subject as AHRL1 by suppressing an autoimmune response. Additionally, analog 6, analog 7, and other analogs of 11-Cl-BBQ, that are found to be active AhR ligands using the disclosed screening method, are expected to induce Tregs and suppress CTL to provide treatment and/or prevention of immune-mediated diseases.
# [1] = in humans; cited from earlier work
# CYP1A1 = CYP1A1 mRNA induction in Hepa-1 cells; conditions: 1 nM
# Experimental: The levels of CYP1A1 expression were determined by measuring CYP1A1 messenger ribonucleic acid (mRNA) levels.
smiles,measurement,setting,value
"Clc1cc2c(cc1Cl)Oc1cc(Cl)c(Cl)cc1O2 [TCDD, 2,3,7,8-tetrachlorodibenzo-p-dioxin]",percentage of CD4+Foxp3- cells that were Nrp1+,"NOD mice; NOD.Foxp3WT mice, 20 weeks of age",decrease
same,percentage of Foxp3+ cells gated on CD4+ cells,"NOD mice; PLN, 12 weeks of age",higher percentage
same,percentage of Foxp3+ cells gated on CD4+ cells,"NOD mice; PLN, 15 weeks of age",higher percentage
same,percentage of Foxp3+ cells gated on CD4+ cells,"NOD mice; PLN, 20 weeks of age",higher percentage
same,percentage of Foxp3+ cells gated on CD4+ cells,"NOD mice; spleen, 12 weeks of age, vs vehicle",higher percentage
same,percentage of Foxp3+ cells gated on CD4+ cells,"NOD mice; spleen, 15 weeks of age, vs vehicle",higher percentage
same,percentage of Foxp3+ cells gated on CD4+ cells,"NOD mice; spleen, 20 weeks of age, vs vehicle",higher percentage
same,"total number of alloactivated CD4+CD25+ T cells co-expressing CTLA-4+, ICOS, low CD62L",donor CD4+ T cells,increased
same,expression of ICOS on alloactivated donor CD4+ T cells,"donor CD4+ T cells; AHRL1 15 mg/kg then 7 mg/kg, TCDD 15 μg/kg i.p.",significantly increased
same,half-life,[1],approximately seven
same,CYP1A1 mRNA induction,CYP1A1,comparable level of induction
